Data reported in US12421252B2, “Spiro (isobenzofuranazetidine) compounds for the treatment of autoimmune disease” (Hoffmann-La Roche Inc., priority 2020, dated 2025).

What follows are molecules tested against T1, hTLR9 (Homo sapiens, UniProt Q9NR96) (assay: HEK293-Blue-hTLR-9 cells assay). Conditions: HEK293-Blue-hTLR9 cells, ODN2006 stimulation, 20 hrs, SEAP reporter; read-out: HEK/hTLR9 IC50.
T1 sequence (Q9NR96 26-1032): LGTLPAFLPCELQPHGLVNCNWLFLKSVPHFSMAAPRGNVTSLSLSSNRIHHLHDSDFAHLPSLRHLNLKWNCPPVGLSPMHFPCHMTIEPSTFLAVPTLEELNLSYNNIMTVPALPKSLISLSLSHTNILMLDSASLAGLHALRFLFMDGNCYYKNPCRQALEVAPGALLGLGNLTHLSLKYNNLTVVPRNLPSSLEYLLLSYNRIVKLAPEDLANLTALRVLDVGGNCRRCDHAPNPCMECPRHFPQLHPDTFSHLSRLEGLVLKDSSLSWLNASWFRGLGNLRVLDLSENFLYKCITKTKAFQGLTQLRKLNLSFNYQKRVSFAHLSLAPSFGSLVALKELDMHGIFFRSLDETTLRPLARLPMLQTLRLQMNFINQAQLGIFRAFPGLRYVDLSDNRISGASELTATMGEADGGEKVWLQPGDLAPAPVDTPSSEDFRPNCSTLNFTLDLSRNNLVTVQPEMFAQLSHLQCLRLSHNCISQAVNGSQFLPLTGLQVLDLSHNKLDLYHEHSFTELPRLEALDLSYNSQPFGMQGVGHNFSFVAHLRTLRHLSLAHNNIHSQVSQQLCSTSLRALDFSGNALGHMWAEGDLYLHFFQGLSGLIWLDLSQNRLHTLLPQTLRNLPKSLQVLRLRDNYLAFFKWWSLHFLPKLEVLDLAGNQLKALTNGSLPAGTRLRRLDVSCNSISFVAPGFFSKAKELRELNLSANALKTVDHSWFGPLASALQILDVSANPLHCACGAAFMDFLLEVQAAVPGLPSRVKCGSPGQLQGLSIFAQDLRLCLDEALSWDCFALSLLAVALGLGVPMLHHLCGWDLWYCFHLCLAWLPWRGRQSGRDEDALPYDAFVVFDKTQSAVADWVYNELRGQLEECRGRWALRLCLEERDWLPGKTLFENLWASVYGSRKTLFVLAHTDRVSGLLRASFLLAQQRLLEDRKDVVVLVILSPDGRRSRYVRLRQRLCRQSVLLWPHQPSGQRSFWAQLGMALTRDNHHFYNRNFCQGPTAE
Type: cell-based
Text: HEK293-Blue-hTLR-9 cells assay: A stable HEK293-Blue-hTLR-9 cell line was purchased from InvivoGen (Cat. #: hkb-htlr9, San Diego, California, USA). These cells were originally designed for studying the stimulation of human TLR9 by monitoring the activation of NF-κB. A SEAP (secreted embryonic alkaline phosphatase) reporter gene was placed under the control of the IFN-β minimal promoter fused to five NF-κB and AP-1-binding sites. The SEAP was induced by activating NF-κB and AP-1 via stimulating HEK-Blue hTLR9 cells with TLR9 ligands. Therefore the reporter expression was declined by TLR9 antagonist under the stimulation of a ligand, such as ODN2006 (Cat. #: tlrl-2006-1, Invivogen, San Diego, California, USA), for incubation of 20 hrs. The cell culture supernatant SEAP reporter activity was determined using QUANTI-Blue™ kit (Cat. #: rep-qb1, Invivogen, San Diego, California, USA) at a wavelength of 640 nm, a detection medium that turns purple or blue in the presence of alkaline phosphatase.
HEK293-Blue-hTLR9 cells were incubated at a density of 250,000˜450,000 cells/mL in a volume of 170 μL in a 96-well plate in Dulbecco's Modified Eagle's medium (DMEM) containing 4.5 g/L glucose, 50 U/mL penicillin, […], 2 mM L-glutamine, 10% (v/v) heat-inactivated fetal bovine serum with addition of 20 μL test compound in a serial dilution in the presence of final DMSO at 1% and 10 μL of 20 uM ODN2006 in above DMEM, perform incubation under 37° C. in a CO2 incubator for 20 hrs. Then 20 μL of the supernatant from each well was incubated with 180 μL Quanti-blue substrate solution at 37° C. for 2 h and the absorbance was read at 620-655 nm using a spectrophotometer. The signaling pathway that TLR9 activation leads to downstream NF-κB activation has been widely accepted, and therefore similar reporter assay was modified for evaluating TLR9 antagonist.

Structure (SMILES) | IC50 [nM]
C[C@@H]1CN(c2ccc(C#N)n3ncc(F)c23)C[C@H](CN2CC3(C2)OCc2cc(N4CC5(CN(C)C5)C4)cnc23)O1 [Example 22, 3-fluoro-4-[(2R,6S)-2-methyl-6-[[3-(6-methyl-2,6-diazaspiro[3.3]heptan-2-yl)spiro[5H-furo[3,4-b]pyridine-7,3′-azetidine]-1′-yl]methyl]morpholin-4-yl]pyrazolo[1,5-a]pyridine-7-carbonitrile] | 57
C[C@@H]1CN(c2ccc(C#N)n3ncc(F)c23)C[C@H](CN2CC3(C2)OCc2cc(N4CC(C)(N)C4)ncc23)O1 [Example 24, 4-[(2S,6R)-2-[[6-(3-amino-3-methyl-azetidin-1-yl)spiro[1H-furo[3,4-c]pyridine-3,3′-azetidine]-1′-yl]methyl]-6-methyl-morpholin-4-yl]-3-fluoro-pyrazolo[1,5-a]pyridine-7-carbonitrile] | 86
[2H]c1ccc2c(N3C[C@H](CN4CC5(C4)OCc4cc(N6C[C@H]7NCCO[C@@H]7C6)ncc45)O[C@H](C)C3)ccc(C#N)c2n1 [Example 28, 5-[(2S,6R)-2-[[6-[(4aR,7aR)-3,4,4a,5,7,7a-hexahydro-2H-pyrrolo[3,4-b][1,4]oxazin-6-yl]spiro[1H-furo[3,4-c]pyridine-3,3′-azetidine]-1′-yl]methyl]-6-methyl-morpholin-4-yl]-2-deuterio-quinoline-8-carbonitrile] | 160
[2H]c1ccc2c(N3C[C@H](CN4CC5(C4)OCc4cc(N6CC(N)C6)ncc45)O[C@H](C)C3)ccc(C#N)c2n1 [Example 32, 5-[(2S,6R)-2-[[6-(3-aminoazetidin-1-yl)spiro[1H-furo[3,4-c]pyridine-3,3′-azetidine]-1′-yl]methyl]-6-methyl-morpholin-4-yl]-2-deuterio-quinoline-8-carbonitrile] | 244
C[C@@H]1CN(c2ccc(C#N)n3ncc(F)c23)C[C@H](CN2CC3(C2)OCc2cc(N4CC(C)(N)C4)cnc23)O1 [Example 33, 4-[(2S,6R)-2-[[3-(3-amino-3-methyl-azetidin-1-yl)spiro[5H-furo[3,4-b]pyridine-7,3′-azetidine]-1′-yl]methyl]-6-methyl-morpholin-4-yl]-3-fluoro-pyrazolo[1,5-a]pyridine-7-carbonitrile] | 227

Continued, values first:

IC50 [nM] | Structure (SMILES)
70 | C[C@@H]1CN(c2ccc(C#N)n3nccc23)C[C@H](CN2CC3(C2)OCc2cc(N4CC(C)(N)C4)ncc23)O1 [Example 25, 4-[(2S,6R)-2-[[6-(3-amino-3-methyl-azetidin-1-yl)spiro[1H-furo[3,4-c]pyridine-3,3′-azetidine]-1′-yl]methyl]-6-methyl-morpholin-4-yl]pyrazolo[1,5-a]pyridine-7-carbonitrile]
80 | C[C@@H]1CN(c2ccc(C#N)n3nccc23)C[C@H](CN2CC3(C2)OCc2cc(N4CC(C)(N)C4)cnc23)O1 [Example 26, 4-[(2S,6R)-2-[[3-(3-amino-3-methyl-azetidin-1-yl)spiro[5H-furo[3,4-b]pyridine-7,3′-azetidine]-1′-yl]methyl]-6-methyl-morpholin-4-yl]pyrazolo[1,5-a]pyridine-7-carbonitrile]
79 | [2H]c1ccc2c(N3C[C@H](CN4CC5(C4)OCc4cc(N6C[C@@H](N)[C@H](OC)C6)cnc45)O[C@H](C)C3)ccc(C#N)c2n1 [Example 31, 5-[(2S,6R)-2-[[3-[(3R,4R)-3-amino-4-methoxy-pyrrolidin-1-yl]spiro[5H-furo[3,4-b]pyridine-7,3′-azetidine]-1′-yl]methyl]-6-methyl-morpholin-4-yl]-2-deuterio-quinoline-8-carbonitrile]
